According to ChEMBL document CHEMBL1126680, “Structure-activity relationships of 8-styrylxanthines as A2-selective adenosine antagonists” (J Med Chem, 1993):

These molecules were tested against T1, Adenosine receptor A1 (Rattus norvegicus, UniProt P25099) (assay: Affinity against Adenosine A1 receptor in rat brain using [3H]- PIA as radioligand). Settings: not given.
T1 sequence (P25099 whole entry): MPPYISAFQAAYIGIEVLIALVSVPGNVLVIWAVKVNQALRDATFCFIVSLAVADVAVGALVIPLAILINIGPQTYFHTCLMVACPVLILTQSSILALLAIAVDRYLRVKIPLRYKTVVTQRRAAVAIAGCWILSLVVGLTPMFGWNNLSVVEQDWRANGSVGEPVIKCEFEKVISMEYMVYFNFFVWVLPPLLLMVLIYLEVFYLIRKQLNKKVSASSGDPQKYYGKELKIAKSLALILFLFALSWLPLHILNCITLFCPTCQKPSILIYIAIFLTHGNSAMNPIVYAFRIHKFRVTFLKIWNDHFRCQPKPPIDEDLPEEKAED
Assay type: tissue-based

Row | Ki [nM] | SMILES
1 | 2280 | COc1cc(/C=C/c2nc3c(=O)n(C)c(=O)n(C)c3[nH]2)cc(OC)c1OC
2 | 9200 | COc1cc(/C=C/c2nc3c(c(=O)n(C)c(=O)n3C)n2C)cc(OC)c1OC
3 | 1770 | COc1cccc2cc(-c3nc4c(=O)n(C)c(=O)n(C)c4[nH]3)oc12
4 | 23600 | Cn1c(=O)c2c(nc(/C=C/c3cccc(NC(=O)OC(C)(C)C)c3)n2C)n(C)c1=O
5 | 1930 | C=CCn1c(=O)c2c(nc(/C=C/c3cc(OC)c(OC)c(OC)c3)n2C)n(CC=C)c1=O

The molecules below were run against Adenosine A2 receptor (Rattus norvegicus, UniProt P29276+P30543) (assay: Binding affinity against adenosine A2 receptor in rat brain using [3H]- CGS 21680 as radioligand). Settings: not given.
Assay type: tissue-based

Row | Ki [nM] | SMILES
6 | 353 | COc1cc(/C=C/c2nc3c(c(=O)n(C)c(=O)n3C)n2C)cc(OC)c1OC/C=C/CNC(=O)OC(C)(C)C
7 | 343 | Cn1c(=O)c2nc(/C=C/c3cccc(C(F)(F)F)c3)[nH]c2n(C)c1=O
8 | 18000 | Cn1c(=O)c2c(nc(CCc3cccc(N)c3)n2C)n(C)c1=O
9 | 216 | COc1cc(/C=C/c2nc3c(c(=O)n(C)c(=O)n3C)n2C)cc(OC)c1OC/C=C/CNC(C)=O
10 | 4740 | COc1cccc2cc(-c3nc4c(c(=O)n(C)c(=O)n4C)n3C)oc12
11 | 39 | CC(=O)Nc1cccc(/C=C/c2nc3c(c(=O)n(C)c(=O)n3C)n2C)c1
12 | 75.3 | COc1cc(/C=C/c2nc3c(c(=O)n(C)c(=O)n3C)n2C)cc(OC)c1
13 | 472 | COc1ccc(/C=C/c2nc3c(=O)n(C)c(=O)n(C)c3[nH]2)cc1
14 | 68 | COc1cc(/C=C/c2nc3c(c(=O)n(C)c(=O)n3C)n2C)cc(OC)c1OC(C)=O
15 | 327 | CCCn1c(=O)c2c(nc(/C=C/c3cc(OC)c(OC)cc3OC)n2C)n(CCC)c1=O
16 | 516 | Cn1c(=O)c2nc(/C=C/c3cccc(F)c3)[nH]c2n(C)c1=O
17 | 366 | Cn1c(=O)c2nc(/C=C/c3cc(F)cc(F)c3)[nH]c2n(C)c1=O
18 | 68.5 | CCCn1c(=O)c2c(nc(/C=C/c3ccc(OC)c(OC)c3OC)n2C)n(CCC)c1=O
19 | 33 | CCCn1c(=O)c2c(nc(/C=C/c3cccc(F)c3)n2C)n(CCC)c1=O
20 | 525 | C#CCn1c(/C=C/c2cc(OC)c(OC)c(OC)c2)nc2c1c(=O)n(C)c(=O)n2C
21 | 18.9 | CCCn1c(=O)c2c(nc(/C=C/c3cccc(N)c3)n2C)n(CCC)c1=O
22 | 143 | Cn1c(=O)c2c(nc(/C=C/c3cccc(NC(=O)CCC(=O)O)c3)n2C)n(C)c1=O
23 | 3900 | COc1cccc2cc(-c3nc4c(=O)n(C)c(=O)n(C)c4[nH]3)oc12
24 | 139 | COc1cc(/C=C/c2nc3c(c(=O)n(C)c(=O)n3C)n2C)cc(OC)c1OCc1ccccc1
25 | 210 | CCCn1c(=O)c2nc(/C=C/c3cc(OC)cc(OC)c3)[nH]c2n(CCC)c1=O
26 | 44 | CCCn1c(=O)c2nc(/C=C/c3ccccc3)[nH]c2n(CCC)c1=O

Row | Ki [nM] | SMILES
27 | 134 | Cn1c(=O)c2c(nc(/C=C/c3cccc(C(F)(F)F)c3)n2C)n(C)c1=O
28 | 450 | COc1cc(/C=C/c2nc3c(c(=O)n(C)c(=O)n3C)n2C)cc(OC)c1O
29 | 716 | COc1cccc(/C=C/c2nc3c(c(=O)n(C)c(=O)n3C)n2C)c1OC
30 | 267 | COc1ccccc1/C=C/c1nc2c(c(=O)n(C)c(=O)n2C)n1C
31 | 740 | Cn1c(=O)c2c(nc(/C=C/c3cccc(N(C(=O)OC(C)(C)C)C(=O)OC(C)(C)C)c3)n2C)n(C)c1=O
32 | 323 | CCCn1c(=O)c2nc(/C=C/c3cc(OC)c(OC)cc3OC)[nH]c2n(CCC)c1=O
33 | 9270 | CN(C)c1ccc(/C=C/c2nc3c(c(=O)n(C)c(=O)n3C)n2C)cc1
34 | 346 | CCCn1c(=O)c2nc(/C=C/c3cc(F)cc(F)c3)[nH]c2n(CCC)c1=O
35 | 784 | Cn1c(=O)c2c(nc(/C=C/c3cccc(NC(=O)OC(C)(C)C)c3)n2C)n(C)c1=O
36 | 64 | CCCn1c(=O)c2nc(/C=C/c3ccc(OC)c(OC)c3OC)[nH]c2n(CCC)c1=O
37 | 438 | Cn1c(=O)c2nc(/C=C/c3cccc([N+](=O)[O-])c3)[nH]c2n(C)c1=O
38 | 1100 | COc1ccc(/C=C/c2nc3c(=O)n(C)c(=O)n(C)c3[nH]2)cc1OC
39 | 600 | COc1cccc(/C=C/c2nc3c(=O)n(C)c(=O)n(C)c3[nH]2)c1OC
40 | 56.2 | CCCn1c(=O)c2c(nc(/C=C/c3cccc([N+](=O)[O-])c3)n2C)n(CCC)c1=O
41 | 206 | COc1ccc(/C=C/c2nc3c(c(=O)n(C)c(=O)n3C)n2C)c(OC)c1OC
42 | 265 | COc1cc(/C=C/c2nc3c(c(=O)n(C)c(=O)n3C)n2C)cc(OC)c1OCCCCNC(=O)OC(C)(C)C
43 | 269 | CCn1c(=O)c2nc(/C=C/c3cc(OC)c(OC)c(OC)c3)[nH]c2n(CC)c1=O
44 | 2110 | Cn1c(=O)c2nc(/C(F)=C/c3ccccc3)[nH]c2n(C)c1=O
45 | 120 | COc1cc(/C=C/c2nc3c(=O)n(C)c(=O)n(C)c3[nH]2)cc(OC)c1
46 | 197 | COc1ccc(/C=C/c2nc3c(c(=O)n(C)c(=O)n3C)n2C)cc1OC
47 | 195 | Cn1c(=O)c2c(nc(/C=C/c3cccc([N+](=O)[O-])c3)n2C)n(C)c1=O

Row | Ki [nM] | SMILES
48 | 378 | COc1cccc(/C=C/c2nc3c(=O)n(C)c(=O)n(C)c3[nH]2)c1
49 | 83 | Cn1c(=O)c2c(nc(/C=C/c3cccc(F)c3)n2C)n(C)c1=O
50 | 24 | CCCn1c(=O)c2c(nc(/C=C/c3cc(OC)cc(OC)c3)n2C)n(CCC)c1=O
51 | 57 | Cn1c(=O)c2c(nc(/C=C/c3cccc(N)c3)n2C)n(C)c1=O
52 | 53 | CCCn1c(=O)c2c(nc(/C=C/c3cc(F)cc(F)c3)n2C)n(CCC)c1=O
53 | 645 | COc1ccccc1/C=C/c1nc2c(=O)n(C)c(=O)n(C)c2[nH]1
54 | 303 | Cn1c(=O)c2nc(/C=C/c3cccc(O)c3)[nH]c2n(C)c1=O
55 | 173 | COc1cc(/C=C/c2nc3c(c(=O)n(C)c(=O)n3C)n2C)cc(OC)c1OCCCCN
56 | 327 | COc1ccc(/C=C/c2nc3c(c(=O)n(C)c(=O)n3C)n2C)cc1
57 | 216 | CCCn1c(=O)c2nc(/C=C/c3cccc(Cl)c3)[nH]c2n(CCC)c1=O
58 | 12800 | CN(C)c1ccc(/C=C/c2nc3c(=O)n(C)c(=O)n(C)c3[nH]2)cc1
59 | 202 | Cn1c(=O)c2nc(/C=C/c3cccc(N)c3)[nH]c2n(C)c1=O
60 | 1610 | COc1ccc(/C=C/c2nc3c(=O)n(C)c(=O)n(C)c3[nH]2)c(OC)c1OC
61 | 291 | Cn1c(=O)c2nc(/C=C/c3ccccc3)[nH]c2n(C)c1=O
62 | 65 | Cn1c(=O)c2c(nc(/C=C/c3cc(F)cc(F)c3)n2C)n(C)c1=O
63 | 153 | CCCn1c(=O)c2nc(/C=C/c3cccc(F)c3)[nH]c2n(CCC)c1=O
64 | 228 | COc1cc(/C=C/c2nc3c(c(=O)n(C)c(=O)n3C)n2C)cc(OC)c1OC/C=C/CN
65 | 882 | CCn1c(/C=C/c2cc(OC)c(OC)c(OC)c2)nc2c1c(=O)n(C)c(=O)n2C
66 | 84.8 | COc1cccc(/C=C/c2nc3c(c(=O)n(C)c(=O)n3C)n2C)c1

Row | SMILES | Ki [nM]
67 | COc1cc(/C=C/c2nc3c(c(=O)n(C)c(=O)n3C)n2CCc2ccccc2)cc(OC)c1OC | 14

Each molecule was assayed against T2, Adenosine receptor A1 (Rattus norvegicus) (UniProt P25099) (assay: Binding affinity against Adenosine A1 receptor in rat brain using [3H]- PIA). Settings: concentration not given here.
T2 sequence (whole entry): T1 sequence (P25099 whole entry)
Assay type: tissue-based

Row | inhibition [%] | SMILES
68 | 11 | COc1cc(/C=C/c2nc3c(c(=O)n(C)c(=O)n3C)n2C)cc(OC)c1OC/C=C/CNC(=O)OC(C)(C)C
69 | 15 | Cn1c(=O)c2c(nc(CCc3cccc(N)c3)n2C)n(C)c1=O
70 | 17 | COc1cc(/C=C/c2nc3c(c(=O)n(C)c(=O)n3C)n2C)cc(OC)c1OC/C=C/CNC(C)=O
71 | 12.5 | COc1cc(/C=C/c2nc3c(c(=O)n(C)c(=O)n3C)n2C)cc(OC)c1
72 | 5.6 | CN(C)c1ccc(/C=C/c2nc3c(c(=O)n(C)c(=O)n3C)n2C)cc1
73 | 26 | COc1cc(/C=C/c2nc3c(c(=O)n(C)c(=O)n3C)n2CCO)cc(OC)c1OC
74 | 26 | COc1ccc(/C=C/c2nc3c(=O)n(C)c(=O)n(C)c3[nH]2)c(OC)c1OC

The molecules below were run against Adenosine A2 receptor (Rattus norvegicus) (UniProt P29276+P30543) (assay: Binding affinity against Adenosine A2 receptor in rat brain using [3H]- CGS 21680). Settings: concentration not given here.
Assay type: tissue-based

Row | inhibition [%] | SMILES
75 | 22 | COc1cc(/C=C/c2nc3c(c(=O)n(C)c(=O)n3C)n2CCO)cc(OC)c1OC
